Assay results reported in patent US20240100170A1, “CYCLIC-AMP RESPONSE ELEMENT BINDING PROTEIN (CBP) AND/OR ADENOVIRAL E1A BINDING PROTEIN OF 300 KDA (P300) DEGRADATION COMPOUNDS AND METHODS OF USE” (CULLGEN (SHANGHAI), INC., priority 2020, published 2024).
Where two headings read alike, the source gives them in different places.

What was measured:
[1] = target: P300 (Homo sapiens, UniProt Q09472); experiment: percentage of inhibition (degradation) of p300 at 10 nM, Tables 2-4; assay type: cell-based; design: LNCaP or 22RV1 cells that express CBP/P300 proteins were treated with GNE-781 or the bivalent compounds; endogenous in cells; host or cells: LNCaP or 22RV1 (not given); details: p300, 10 nM, read-out: Degradation (10 nM)
Sequence of P300 (Q09472 whole entry): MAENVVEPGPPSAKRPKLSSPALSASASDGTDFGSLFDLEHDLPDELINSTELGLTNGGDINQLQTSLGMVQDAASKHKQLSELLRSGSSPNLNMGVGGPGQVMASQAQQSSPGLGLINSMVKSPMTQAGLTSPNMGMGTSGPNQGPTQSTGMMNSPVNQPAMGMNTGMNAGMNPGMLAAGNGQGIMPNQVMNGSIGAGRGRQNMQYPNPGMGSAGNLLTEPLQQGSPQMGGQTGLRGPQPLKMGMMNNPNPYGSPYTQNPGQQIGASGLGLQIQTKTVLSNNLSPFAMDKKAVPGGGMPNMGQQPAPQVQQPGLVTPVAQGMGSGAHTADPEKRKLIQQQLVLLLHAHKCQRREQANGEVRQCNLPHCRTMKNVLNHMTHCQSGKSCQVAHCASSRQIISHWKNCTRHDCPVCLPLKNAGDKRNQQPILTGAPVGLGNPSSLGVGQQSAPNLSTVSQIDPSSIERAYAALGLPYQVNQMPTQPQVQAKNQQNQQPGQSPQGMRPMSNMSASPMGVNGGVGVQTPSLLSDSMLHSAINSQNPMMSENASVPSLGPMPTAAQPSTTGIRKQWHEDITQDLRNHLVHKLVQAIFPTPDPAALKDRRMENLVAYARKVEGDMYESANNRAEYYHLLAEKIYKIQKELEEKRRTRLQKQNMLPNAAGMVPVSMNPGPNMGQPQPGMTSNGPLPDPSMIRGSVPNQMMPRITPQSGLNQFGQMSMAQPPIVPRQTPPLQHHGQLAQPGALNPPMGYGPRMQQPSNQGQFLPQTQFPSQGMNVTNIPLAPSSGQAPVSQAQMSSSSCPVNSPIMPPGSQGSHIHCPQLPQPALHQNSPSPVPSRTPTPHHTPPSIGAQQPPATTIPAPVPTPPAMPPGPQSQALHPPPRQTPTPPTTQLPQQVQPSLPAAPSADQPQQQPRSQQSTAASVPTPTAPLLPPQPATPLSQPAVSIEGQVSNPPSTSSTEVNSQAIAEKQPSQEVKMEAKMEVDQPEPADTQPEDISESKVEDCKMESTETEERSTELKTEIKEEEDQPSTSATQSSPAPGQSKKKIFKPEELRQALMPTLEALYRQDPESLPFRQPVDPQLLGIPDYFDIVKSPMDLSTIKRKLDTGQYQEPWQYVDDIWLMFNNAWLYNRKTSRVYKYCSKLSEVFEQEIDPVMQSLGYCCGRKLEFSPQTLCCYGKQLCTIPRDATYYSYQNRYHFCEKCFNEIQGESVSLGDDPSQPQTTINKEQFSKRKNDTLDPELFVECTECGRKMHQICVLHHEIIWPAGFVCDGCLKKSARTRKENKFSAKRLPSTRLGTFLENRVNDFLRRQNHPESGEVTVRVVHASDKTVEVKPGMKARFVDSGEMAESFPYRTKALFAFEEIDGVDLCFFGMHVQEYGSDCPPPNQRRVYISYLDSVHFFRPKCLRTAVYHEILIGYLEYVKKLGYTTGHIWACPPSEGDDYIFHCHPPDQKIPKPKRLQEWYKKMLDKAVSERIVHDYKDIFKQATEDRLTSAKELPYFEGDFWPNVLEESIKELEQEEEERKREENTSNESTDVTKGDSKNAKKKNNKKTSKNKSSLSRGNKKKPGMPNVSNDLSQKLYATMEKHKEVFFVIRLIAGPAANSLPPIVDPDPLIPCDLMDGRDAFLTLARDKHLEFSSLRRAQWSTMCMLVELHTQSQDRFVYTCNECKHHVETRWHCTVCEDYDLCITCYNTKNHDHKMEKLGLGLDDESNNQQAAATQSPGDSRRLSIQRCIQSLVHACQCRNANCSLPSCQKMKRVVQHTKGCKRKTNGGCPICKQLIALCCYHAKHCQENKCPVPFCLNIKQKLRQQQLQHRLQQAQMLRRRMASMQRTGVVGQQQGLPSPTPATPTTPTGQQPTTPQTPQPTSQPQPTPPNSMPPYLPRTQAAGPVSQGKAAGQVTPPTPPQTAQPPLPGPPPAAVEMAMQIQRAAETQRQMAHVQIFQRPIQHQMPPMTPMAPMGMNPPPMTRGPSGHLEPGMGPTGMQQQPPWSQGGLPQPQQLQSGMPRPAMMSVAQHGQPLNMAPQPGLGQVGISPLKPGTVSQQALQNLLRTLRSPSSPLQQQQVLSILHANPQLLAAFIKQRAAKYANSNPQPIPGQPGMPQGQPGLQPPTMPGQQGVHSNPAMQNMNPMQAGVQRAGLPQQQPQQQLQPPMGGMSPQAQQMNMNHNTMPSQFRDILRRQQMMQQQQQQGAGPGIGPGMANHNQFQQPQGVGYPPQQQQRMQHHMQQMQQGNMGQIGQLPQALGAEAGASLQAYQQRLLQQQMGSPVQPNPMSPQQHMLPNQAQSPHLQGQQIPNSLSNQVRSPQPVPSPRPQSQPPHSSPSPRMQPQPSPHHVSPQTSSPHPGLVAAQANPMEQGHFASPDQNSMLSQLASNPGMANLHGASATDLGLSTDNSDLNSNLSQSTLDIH
Description: Cultured cells or tissue chunks were washed with cold PBS once and lysed in cold RIPA buffer supplemented with protease inhibitors and phosphatase inhibitors (Beyotime Biotechnology). The solutions were then incubated at 4° C. for 30 minutes with gentle agitation to fully lyse cells. Cell lysates were centrifuged at 13,000 rpm for 10 minutes at 4° C. and pellets were discarded. Total protein concentrations in the lysates were determined by BCA assays (Beyotime Biotechnology). Cell lysates were mixed with Laemmli loading buffer to 1 X and heated at 99° C. for 5 min. Proteins were resolved on SDS-PAGE and visualized by chemiluminescence. Images were taken by a ChemiDoc MP Imaging system (Bio-Rad). Protein bands were quantitated using the accompanied software provided by Bio-Rad.

[2] = tested on: LNCaP prostate cancer cell; experiment: LNCaP cell viability (CellTiter-Glo); assay type: cell-based; details: 3 days; for IC50: Homo sapiens, 72 h, LNCaP cell viability, CellTiter-Glo
Description: LNCaP cells seeded in 96-well plates were treated with 10 μM GNE-781 or selected bivalent compounds, i.e. P-001, P-002, and P-019, following a 12-point 3-fold serial dilution. Three days after treatment, cell viability was determined using the CellTiter-Glo kit (Promega) following manufacturer's instructions. Cell viability was normalized to the mean values of 3 replicates of untreated cells. Dose-dependent response was analyzed following the least-squares non-linear regression method using the GraphPad Prism 5.0 software.
LNCaP (clone FGC), 22RV1 and other cells were cultured at 37° C. with 5% CO 2 in RPMI 1640 Medium supplemented with 10% fetal bovine serum. Cells were authenticated using the short tandem repeat (STR) assays. Mycoplasma test results were negative.
Cells were seeded at a density of 5000 cells per well in 96-well assay plates and treated with test compounds following a 12-point 3-fold serial dilution. Three days later, cell viability was determined using the CellTiter-Glo assay kit according to the manufactureR's instructions. The dose-response curves were determined and IC50 values were calculated using the GraphPad Prism software following a nonlinear regression (least squares fit) method.

Row | IC50 ([2]; Table 4) | Structure (SMILES) | other results
1 | 1.1 nM | CC(=O)N1CCc2c(c(N3CCCc4cc(-c5cnn(C)c5)c(C(F)F)cc43)nn2C2CCN(C(=O)CCCCCNc3ccc(C(=O)NC4CCC(=O)NC4=O)c4ncccc34)CC2)C1 (stereo not drawn) [P-242, 5-((6-(4-(5-acetyl-3-(7-(difluoromethyl)-6-(1-methyl-1H-pyrazol-4-yl)-3,4-dihydroquinolin-1(2H)-yl)-4,5,6,7-tetrahydro-1H-pyrazolo[4,3-c]pyridin-1-yl)piperidin-1-yl)-6-oxohexyl)amino)-N-(2,6-dioxopiperidin-3-yl)quinoline-8-carboxamide] | inhibition at 0.01 µM ([1]; Table 4): > 80%
2 | 179 nM | CC(=O)N1CCc2c(c(N3CCCc4cc(-c5cnn(C)c5)c(C(F)F)cc43)nn2C2CCN(CCN3CCN(c4cccc5c4C(=O)N(C4CCC(=O)NC4=O)C5=O)CC3)CC2)C1 (stereo not drawn) [P-191, 4-(4-(2-(4-(5-acetyl-3-(7-(difluoromethyl)-6-(1-methyl-1H-pyrazol-4-yl)-3,4-dihydroquinolin-1(2H)-yl)-4,5,6,7-tetrahydro-1H-pyrazolo[4,3-c]pyridin-1-yl)piperidin-1-yl)ethyl)piperazin-1-yl)-2-(2,6-dioxopiperidin-3-yl)isoindoline-1,3-dione] | inhibition at 0.01 µM ([1]; Table 4): < 20%
3 | – | CNC(=O)N1CCc2c(c(N3CCCc4cc(-c5cnn(C)c5)c(C(F)F)cc43)nn2C2CCN(C(=O)CNc3cccc4c3C(=O)N(C3CCC(=O)NC3=O)C4=O)CC2)C1 (stereo not drawn) [P-013, 3-(7-(difluoromethyl)-6-(1-methyl-1H-pyrazol-4-yl)-3,4-dihydroquinolin-1(2H)-yl)-1-(1-((2-(2,6-dioxopiperidin-3-yl)-1,3-dioxoisoindolin-4-yl)glycyl)piperidin-4-yl)-N-methyl-1,4,6,7-tetrahydro-5H-pyrazolo[4,3-c]pyridine-5-carboxamide] | inhibition at 0.01 µM ([1]; Table 2): 20 to 50%
4 | – | CNC(=O)N1CCc2c(c(N3CCCc4cc(-c5cnn(CC(=O)NCCCCCCCCCC(=O)NC(C(=O)N6C[C@H](O)CC6C(=O)NCc6ccc(-c7scnc7C)cc6)C(C)(C)C)c5)c(C(F)F)cc43)nn2C2CCOCC2)C1 (stereo in doubt) [P-049, 3-(7-(difluoromethyl)-6-(1-(2-((10-(((S)-1-((2S,4R)-4-hydroxy-2-((4-(4-methylthiazol-5-yl)benzyl)carbamoyl)pyrrolidin-1-yl)-3,3-dimethyl-1-oxobutan-2-yl)amino)-10-oxodecyl)amino)-2-oxoethyl)-1H-pyrazol-4-yl)-3,4-dihydroquinolin-1(2H)-yl)-N-methyl-1-(tetrahydro-2H-pyran-4-yl)-1,4,6,7-tetrahydro-5H-pyrazolo[4,3-c]pyridine-5-carboxamide] | IC50 ([2]; Table 2): 234 nM
5 | 241 nM | CC(=O)N1CCc2c(c(N3CCCc4cc(-c5cnn(C)c5)c(C(F)F)cc43)nn2C2CCN(CCCCN3CCN(c4cccc5c4C(=O)N(C4CCC(=O)NC4=O)C5=O)CC3)CC2)C1 (stereo not drawn) [P-248, 4-(4-(4-(4-(5-Acetyl-3-(7-(difluoromethyl)-6-(1-methyl-1H-pyrazol-4-yl)-3,4-dihydroquinolin-1(2H)-yl)-4,5,6,7-tetrahydro-1H-pyrazolo[4,3-c]pyridin-1-yl)piperidin-1-yl)butyl)piperazin-1-yl)-2-(2,6-dioxopiperidin-3-yl)isoindoline-1,3-dione] | –
6 | > 500 nM | CC(=O)N1CCc2c(c(N3CCCc4cc(-c5cnn(C)c5)c(C(F)F)cc43)nn2C2CCN(C(=O)CCCC3CCN(CC(=O)Nc4cccc(NC5CCC(=O)NC5=O)c4)CC3)CC2)C1 (stereo not drawn) [P-262, 2-(4-(4-(4-(5-Acetyl-3-(7-(difluoromethyl)-6-(1-methyl-1H-pyrazol-4-yl)-3,4-dihydroquinolin-1(2H)-yl)-4,5,6,7-tetrahydro-1H-pyrazolo[4,3-c]pyridin-1-yl)piperidin-1-yl)-4-oxobutyl)piperidin-1-yl)-N-(3-((2,6-dioxopiperidin-3-yl)amino)phenyl)acetamide] | –
7 | > 500 nM | CC(=O)N1CCc2c(c(N3CCCc4cc(-c5cnn(C)c5)c(C(F)F)cc43)nn2C2CCN(C(=O)CN3CCN(CC(=O)Nc4cccc(NC5CCC(=O)NC5=O)c4)CC3)CC2)C1 (stereo not drawn) [P-257, 2-(4-(2-(4-(5-acetyl-3-(7-(difluoromethyl)-6-(1-methyl-1H-pyrazol-4-yl)-3,4-dihydroquinolin-1(2H)-yl)-4,5,6,7-tetrahydro-1H-pyrazolo[4,3-c]pyridin-1-yl)piperidin-1-yl)-2-oxoethyl)piperazin-1-yl)-N-(3-((2,6-dioxopiperidin-3-yl)amino)phenyl)acetamide] | –
8 | > 500 nM | CC(=O)N1CCc2c(c(N3CCCc4cc(-c5cnn(C)c5)c(C(F)F)cc43)nn2C2CCN(C(=O)CCN3CCC(COc4cccc5c4n(C)c(=O)n5C4CCC(=O)NC4=O)CC3)CC2)C1 (stereo not drawn) [P-209, 3-(4-((1-(3-(4-(5-acetyl-3-(7-(difluoromethyl)-6-(1-methyl-1H-pyrazol-4-yl)-3,4-dihydroquinolin-1(2H)-yl)-4,5,6,7-tetrahydro-1H-pyrazolo[4,3-c]pyridin-1-yl)piperidin-1-yl)-3-oxopropyl)piperidin-4-yl)methoxy)-3-methyl-2-oxo-2,3-dihydro-1H-benzo[d]imidazol-1-yl)piperidine-2,6-dione] | –
9 | 325 nM | CC(=O)N1CCc2c(c(N3CCCc4cc(-c5cnn(C)c5)c(C(F)F)cc43)nn2C2CCN(C(=O)CCCN3CCC(COc4cccc5c4n(C)c(=O)n5C4CCC(=O)NC4=O)CC3)CC2)C1 (stereo not drawn) [P-210, 3-(4-((1-(4-(4-(5-Acetyl-3-(7-(difluoromethyl)-6-(1-methyl-1H-pyrazol-4-yl)-3,4-dihydroquinolin-1(2H)-yl)-4,5,6,7-tetrahydro-1H-pyrazolo[4,3-c]pyridin-1-yl)piperidin-1-yl)-4-oxobutyl)piperidin-4-yl)methoxy)-3-methyl-2-oxo-2,3-dihydro-1H-benzo[d]imidazol-1-yl)piperidine-2,6-dione] | –
10 | – | CNC(=O)N1CCc2c(c(N3CCCc4cc(-c5cnn(CC(=O)NCCOCCOCC(=O)N[C@H](C(=O)N6C[C@H](O)C[C@H]6C(=O)NCc6ccc(-c7scnc7C)cc6)C(C)(C)C)c5)c(C(F)F)cc43)nn2C2CCOCC2)C1 [P-083, 3-(7-(difluoromethyl)-6-(1-((S)-13-((2S,4R)-4-hydroxy-2-((4-(4-methylthiazol-5-yl)benzyl)carbamoyl)pyrrolidine-1-carbonyl)-14,14-dimethyl-2,11-dioxo-6,9-dioxa-3,12-diazapentadecyl)-1H-pyrazol-4-yl)-3,4-dihydroquinolin-1(2H)-yl)-N-methyl-1-(tetrahydro-2H-pyran-4-yl)-1,4,6,7-tetrahydro-5H-pyrazolo[4,3-c]pyridine-5-carboxamide] | IC50 ([2]; Table 3): > 10000 nM
11 | > 500 nM | CC(=O)N1CCc2c(c(N3CCCc4cc(-c5cnn(C)c5)c(C(F)F)cc43)nn2C2CCN(C(=O)CCCN3CCC(Cn4c(=O)n(C5CCC(=O)NC5=O)c5ccccc54)CC3)CC2)C1 (stereo not drawn) [P-204, 3-(3-((1-(4-(4-(5-acetyl-3-(7-(difluoromethyl)-6-(1-methyl-1H-pyrazol-4-yl)-3,4-dihydroquinolin-1(2H)-yl)-4,5,6,7-tetrahydro-1H-pyrazolo[4,3-c]pyridin-1-yl)piperidin-1-yl)-4-oxobutyl)piperidin-4-yl)methyl)-2-oxo-2,3-dihydro-1H-benzo[d]imidazol-1-yl)piperidine-2,6-dione] | –
12 | – | CNC(=O)N1CCc2c(c(N3CCCc4cc(-c5cnn(C)c5)c(C(F)F)cc43)nn2C2CCN(C(=O)CNc3ccc4c(c3)C(=O)N(C3CCC(=O)NC3=O)C4=O)CC2)C1 (stereo not drawn) [P-001, 3-(7-(difluoromethyl)-6-(1-methyl-1H-pyrazol-4-yl)-3,4-dihydroquinolin-1(2H)-yl)-1-(1-((2-(2,6-dioxopiperidin-3-yl)-1,3-dioxoisoindolin-5-yl)glycyl)piperidin-4-yl)-N-methyl-1,4,6,7-tetrahydro-5H-pyrazolo[4,3-c]pyridine-5-carboxamide] | viability of LNCaP cells ([2]; 3-fold serial dilution from 10 μM, FIG. 4): dose-dependently suppressed viability of LNCaP cells
13 | – | CNC(=O)N1CCc2c(c(N3CCCc4cc(-c5cnn(CC(=O)NCCCCCCCCCCC(=O)N[C@H](C(=O)N6CC(O)C[C@H]6C(=O)NCc6ccc(-c7scnc7C)cc6)C(C)(C)C)c5)c(C(F)F)cc43)nn2C2CCOCC2)C1 (stereo in doubt) [P-050, 3-(7-(difluoromethyl)-6-(1-(2-((11-(((S)-1-((2S,4R)-4-hydroxy-2-((4-(4-methylthiazol-5-yl)benzyl)carbamoyl)pyrrolidin-1-yl)-3,3-dimethyl-1-oxobutan-2-yl)amino)-11-oxoundecyl)amino)-2-oxoethyl)-1H-pyrazol-4-yl)-3,4-dihydroquinolin-1(2H)-yl)-N-methyl-1-(tetrahydro-2H-pyran-4-yl)-1,4,6,7-tetrahydro-5H-pyrazolo[4,3-c]pyridine-5-carboxamide] | IC50 ([2]; Table 2): 111 nM
